Laboratory results reported in US20130230459A1, “RADIOLABELLED mGluR2 PET LIGANDS” (Janssen Pharmaceuticals, Inc., priority 2010, published 2013).
“And” between values parts separate entries of the source, which are not always exact repeats. Equal entries are not always repeated.

Legend:
Format in all cases: in vivo, Wistar rats
[1] = Plasma radiometabolite analysis (30 min p.i.); conditions: n = 2
Description: The metabolic stability of [^11C]B-4, [^11C]B-2, [^11C]B-7, and [^11C]B-10 was studied in healthy male Wistar rats by determination of the relative amounts of parent tracer and radiometabolites in plasma at 30 min p.i. of the tracer. After intravenous (i.v.) administration of about 74 MBq of the radioligand via tail vein under anesthesia (2.5% Isoflurane in O2 at 1 L/min flow rate), rats were sacrificed by decapitation at 30 min p.i. (n=2). Blood was collected in heparin containing tubes (4.5 mL LH PST tubes; BD vacutainer, BD, Franklin Lakes, N.J., USA) and stored on ice to stop the metabolism. Next, the blood was centrifuged for 5 min at 3000 rpm to separate the plasma. About 0.5 mL of plasma was spiked with about 10 μg of the authentic non-radioactive compound (1 mg/mL solution) and injected on to HPLC, which was connected to a Chromolith® performance column (C18, 3 mm×100 mm, Merck KGaA, Darmstadt, Germany). The mobile phase consisted of 0.05 M NaOAc buffer (pH 5.5) (solution A) and CH3CN (solvent B). The following method was used for the analysis: isocratic elution with 100% A for 4 min at a flow rate of 0.5 mL/min, linear gradient to 90% B by 9 min at a flow rate of 1 mL/min, and isocratic elution with mixture of 10% A and 90% B until 12 min. After passing through the UV detector (254 nm), the HPLC eluate was collected as 1 mL fractions (fraction collection each minute) using an automatic fraction collector and the radioactivity of these fractions was measured using an automated gamma counter.

[2] = Perfused brain radiometabolite analysis (30 min p.i.)
Description: The relative amounts of parent tracer and radiometabolites in perfused cerebellum and cerebrum at 30 min p.i. of the tracer was determined in healthy male Wistar rats for [^11C]B-4, [^11C]B-2, [^11C]B-7, and [^11C]B-10. After i.v. administration of about 74 MBq of the radioligand via tail vein under anesthesia (2.5% Isoflurane in O2 at 1 L/min flow rate), rats were sacrificed by administering an overdose of Nembutal (CEVA Santé Animale, 200 mg/kg intraperitoneal). When breathing had stopped, the rats were perfused with saline (Mini Plasco®, Braun, Melsungen, Germany) until the liver turned pale. Brain was isolated, cerebrum and cerebellum were separated and homogenized in 3 mL and 2 mL of CH3CN, respectively, for about 2 min. A volume of 1 mL of this homogenate was diluted with an equal volume of water and a part of this homogenate was filtered through a 0.22 μm filter (Millipore, Bedford, USA). About 0.5 mL of the filtrate was diluted with 0.1 mL of water and spiked with 10 μg of authentic non-radioactive compound (1 mg/mL solution) for identification of the intact tracer. The cerebrum/cerebellum extract was then injected onto an HPLC system consisting of an analytical XBridge® column (C18, 5 μM, 3 mm×100 mm, Waters) eluted with a mixture of 0.05 M NaOAc buffer (pH 5.5) and CH3CN (60:40 v/v) at a flow rate of 0.8 mL/min. The HPLC eluate was collected as 1 mL fractions (fraction collection each minute) after passing through the UV detector (254 nm), and the radioactivity in the fractions was measured using an automated gamma counter.

mGluR2 = target: T1, mGluR2 (Rattus norvegicus, UniProt P31421); assay: MicroPET imaging: baseline, blocking and chase experiments; conditions: for % reduction of SUV (total brain) due to chase: chase compound B 4 mg/kg i.v.; for character of tracer binding to mGluR2 in vivo: concluded from blocking/chase microPET experiments; for SUV (total brain) before chase: maximum SUV; for SUV (total brain) before chase / SUV (total brain) after chase: chase compound B 4 mg/kg i.v. 30 min after tracer; for SUV (total brain) after chase: minimum SUV; for average SUV (total brain) after chase: 4650-5250 sec p.i.
T1 construct: from tissue; host or cells: brain of living male Wistar rats (in vivo microPET)
T1 sequence (P31421 19-872): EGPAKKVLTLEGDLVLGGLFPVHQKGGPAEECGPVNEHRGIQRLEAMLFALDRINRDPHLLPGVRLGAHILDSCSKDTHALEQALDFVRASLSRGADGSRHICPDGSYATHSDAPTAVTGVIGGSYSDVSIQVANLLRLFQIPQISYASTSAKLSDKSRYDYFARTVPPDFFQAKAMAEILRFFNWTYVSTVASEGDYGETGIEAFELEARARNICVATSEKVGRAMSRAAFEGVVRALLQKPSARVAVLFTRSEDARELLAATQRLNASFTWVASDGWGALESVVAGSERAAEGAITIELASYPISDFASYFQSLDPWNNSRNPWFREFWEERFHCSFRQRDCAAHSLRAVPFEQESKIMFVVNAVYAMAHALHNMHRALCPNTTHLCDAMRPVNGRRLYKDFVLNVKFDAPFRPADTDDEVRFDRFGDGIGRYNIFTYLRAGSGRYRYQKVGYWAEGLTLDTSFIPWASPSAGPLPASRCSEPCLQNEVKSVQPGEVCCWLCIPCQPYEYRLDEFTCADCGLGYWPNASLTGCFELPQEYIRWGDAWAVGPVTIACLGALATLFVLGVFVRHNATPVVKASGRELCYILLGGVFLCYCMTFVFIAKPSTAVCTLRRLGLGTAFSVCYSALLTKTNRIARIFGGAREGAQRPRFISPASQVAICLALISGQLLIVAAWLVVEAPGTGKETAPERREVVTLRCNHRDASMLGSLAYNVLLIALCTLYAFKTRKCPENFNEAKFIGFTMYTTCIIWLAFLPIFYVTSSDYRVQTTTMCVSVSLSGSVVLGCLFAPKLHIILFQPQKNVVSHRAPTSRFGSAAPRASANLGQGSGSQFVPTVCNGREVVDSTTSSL
Description: Imaging experiments were performed on a Focus™ 220 microPET scanner (Concorde Microsystems, Knoxyille, Tenn., USA) using healthy male Wistar rats. During all scan sessions, animals were kept under gas anesthesia (2.5% isoflurane in O2 at 1 L/min flow rate).
Dynamic scans of 90 min were acquired. After reconstruction of the images (filtered back projection), they were spatially normalized to an in-house created [^11C]raclopride template of the rat brain in Paxinos coordinates. Automated and symmetric volumes of interest (VOIs) were generated for different brain regions (striatum, cortex, cerebellum, hippocampus, hypothalamus, thalamus, substantia nigra, nucleus accumbens and lateral globus pallidus) from which time-activity curves (TAC) were constructed for each individual scan, using PMOD software (v 3.1, PMOD Technologies Ltd.). The radioactivity concentration in the different brain regions was expressed as SUV as a function of time p.i. of the radiotracer by normalization for body weight of the animal and injected dose.
Rats were injected with 30-60 MBq of high specific activity formulation of [^11C]B-4, [^11C]B-2, [^11C]B-7, or [^11C]B-10 via the tail vein under isoflurane anesthesia (2.5% in O2 at 1 L/min flow rate).
For pretreatment and displacement experiments, compound A, compound B or ritanserin were dissolved and administered in a vehicle containing 20% (2-hydroxypropyl)-β-cyclodextrine and two equivalents hydrochloric acid. The ritanserin solution was protected from light.
A self-blocking study was done by subcutaneous (s.c.) administration of the authentic reference material (for [^11C]B-4) at ˜30 min prior to the radiotracer injection. Displacement studies were performed by i.v. injection of compound B at dose 4, 1, 0.3 and 0.1 mg/kg, compound A at dose 1 mg/kg or ritanserin at dose 0.3 mg/kg. All chase compounds were injected ˜30 min after radiotracer injection. A wash-out period of at least four days was maintained between the different pretreatment and displacement studies.
[^11C]B-4 was evaluated in vivo in three rats which were scanned dynamically for 90 min using μPET. The first rat was used for a baseline scan. The second rat was pretreated with authentic reference material B-4 via s.c. administration (dose 10 mg/kg) at 30 min prior to tracer injection. The third rat was used in a chase experiment and was injected i.v. with authentic reference material B-4 (dose 3 mg/kg) 30 min after tracer injection.
Two rats were injected with high specific activity tracer ([^11C]B-4, [^11C]B-2, [^11C]B-7, or [^11C]B-10) and scanned dynamically for 90 min. The first rat was scanned baseline, the second rat was injected i.v. with compound B (dose 4 mg/kg) 30 min after tracer injection. Table 16 gives an overview of the maximum and minimum SUV values in the chase experiment for the four studied tracers.
A chase experiment was performed for [^11C]B-2 with different doses of compound B (4, 1, 0.3, 0.1 mg/kg). The chase compound was injected i.v. 30 min after tracer injection. Table 17 gives an overview of the average SUV values before and after injection of the chase for the total brain.

SMILES	Intact tracer in rat plasma [1]	Polar metabolites in rat plasma [1]	intact tracer in perfused cerebellum [2]	intact tracer in perfused cerebrum [2]	polar metabolite in perfused cerebellum [2]	polar metabolite in perfused cerebrum [2]	recovered radioactivity present as intact tracer, on average, in both cerebrum and cerebellum [2]	% reduction of SUV (total brain) due to chase (mGluR2)	character of tracer binding to mGluR2 in vivo (mGluR2)	SUV (total brain) before chase (mGluR2)	SUV (total brain) after chase (mGluR2)	also measured
[11CH3]Oc1ccc(F)cc1C1CCN(c2ccn3c(CC4CC4)nnc3c2Cl)CC1 [[^11C]B-4, 8-chloro-3-(cyclopropylmethyl)-7-[4-[5-fluoro-2-[^11C]methoxyphenyl]-1-piperidinyl]-1,2,4-triazolo[4,3-a]pyridine]	41.0 ± 7.1%	59.0 ± 7.1%	92.7%	92.4%	7.3%	7.6%	about 90%	70%	binds reversible and specific to mGluR2	1.05	0.32	effect of self-chase on brain radioactivity (mGluR2; B-4 3 mg/kg i.v. 30 min after tracer): significant displacement; effect of self-blocking on brain uptake (mGluR2; B-4 10 mg/kg s.c. 30 min prior to tracer): lower brain uptake and faster wash-out; time at which maximum radioactivity concentration in brain is reached (mGluR2; baseline scan): about 9 min p.i.; time until which maximum radioactivity concentration stays constant (mGluR2; baseline scan, followed by wash-out): about 27 min p.i.
[11CH3]Oc1c(F)ccc(F)c1C1CCN(c2ccn3c(CC4CC4)nnc3c2Cl)CC1 [[^11C]B-2, 8-chloro-3-(cyclopropylmethyl)-7-[4-(3,6-difluoro-2-[^11C]methoxyphenyl)-1-piperidinyl]-1,2,4-triazolo[4,3-a]pyridine]	70% and 69.7 ± 5.1%	30.3 ± 5.1%	95.5 ± 1.3%	90.3 ± 0.3%	4.1 ± 1.5%	9.7 ± 0.3%	about 90%	73%	binds reversible, specific and selective to mGluR2	1.4	0.38	average SUV (total brain), baseline (mGluR2; baseline scan, 930-1650 sec p.i.): 1.26; % reduction of SUV (total brain) (mGluR2; compound B 0.1 mg/kg): 50%; average SUV (total brain) before chase (mGluR2; compound B 0.1 mg/kg, 930-1650 sec p.i.): 1.35; average SUV (total brain) after chase (mGluR2; compound B 0.1 mg/kg): 0.67; % reduction of SUV (total brain) (mGluR2; compound B 0.3 mg/kg): 64%; average SUV (total brain) before chase (mGluR2; compound B 0.3 mg/kg, 930-1650 sec p.i.): 2.15; average SUV (total brain) after chase (mGluR2; compound B 0.3 mg/kg): 0.78; % reduction of SUV (total brain) (mGluR2; compound B 1 mg/kg): 66%; average SUV (total brain) before chase (mGluR2; compound B 1 mg/kg, 930-1650 sec p.i.): 1.78; average SUV (total brain) after chase (mGluR2; compound B 1 mg/kg): 0.61; % reduction of SUV (total brain) (mGluR2; compound B 4 mg/kg): 74%; average SUV (total brain) before chase (mGluR2; compound B 4 mg/kg, 930-1650 sec p.i.): 1.36; average SUV (total brain) after chase (mGluR2; compound B 4 mg/kg): 0.36
[11CH3]Oc1cc(F)cc(F)c1C1CCN(c2ccn3c(CC4CC4)nnc3c2Cl)CC1 [[^11C]B-7, 8-chloro-3-(cyclopropylmethyl)-7-[4-[2,4-difluoro-6-[^11C]methoxyphenyl]-1-piperidinyl]-1,2,4-triazolo[4,3-a]pyridine]	30.8 ± 7.0%	69.2 ± 7.0%	95.5%	92.9%	4.5%	7.1%	about 90%	58%		1.2	0.5	
[11CH3]Oc1ccc(F)c(F)c1C1CCN(c2ccn3c(CC4CC4)nnc3c2Cl)CC1 [[^11C]B-10, 8-chloro-3-(cyclopropylmethyl)-7-[4-[2,3-difluoro-6-[^11C]methoxyphenyl]-1-piperidinyl]-1,2,4-triazolo[4,3-a]pyridine]	45.5 ± 2.1%	54.5 ± 2.1%	96.4%	93.1%	3.6%	6.9%	about 90%	58%		1.2	0.5	
